# Biological target: CA II (Homo sapiens, UniProt P00918)
# Experiment: esterase assay, p-nitrophenyl acetate hydrolysis
# Type: biochemical
row,IC50,Compound
1,> 2 µM,"O=C1NS(=O)(=O)c2cc(-n3cc(CO[C@@H]4O[C@H](CO)[C@@H](O)[C@H](O)[C@H]4O)nn3)ccc21 [1a, saccharin-glycoconjugate 1a]"
2,> 2 µM,"O=C1NS(=O)(=O)c2cc(-n3cc(CO[C@@H]4O[C@H](CO)[C@H](O)[C@H](O)[C@H]4O)nn3)ccc21 [1b, saccharin-glycoconjugate 1b]"
3,> 2 µM,"O=C1NS(=O)(=O)c2cc(-n3cc(CCO[C@@H]4O[C@H](CO)[C@H](O)[C@H](O)[C@H]4O)nn3)ccc21 [1c, saccharin-glycoconjugate 1c]"

# From publication PMC6492551 (Carbohydrate research, 2019)
